Assay results taken from ChEMBL document CHEMBL4007392, “Modulating Mineralocorticoid Receptor with Non-steroidal Antagonists. New Opportunities for the Development of Potent and Selective Ligands without Off-Target Side Effects” (J Med Chem, 2017).

Legend:
[1] = target: T1, Mineralocorticoid receptor (Homo sapiens) (UniProt P08235); assay: Antagonist activity at full-length human MR expressed in CHO-K1 cells assessed as inhibition of aldosterone-induced response measured after overnight incubation by luminesence analysis; format: cell-based
T1 sequence (whole entry): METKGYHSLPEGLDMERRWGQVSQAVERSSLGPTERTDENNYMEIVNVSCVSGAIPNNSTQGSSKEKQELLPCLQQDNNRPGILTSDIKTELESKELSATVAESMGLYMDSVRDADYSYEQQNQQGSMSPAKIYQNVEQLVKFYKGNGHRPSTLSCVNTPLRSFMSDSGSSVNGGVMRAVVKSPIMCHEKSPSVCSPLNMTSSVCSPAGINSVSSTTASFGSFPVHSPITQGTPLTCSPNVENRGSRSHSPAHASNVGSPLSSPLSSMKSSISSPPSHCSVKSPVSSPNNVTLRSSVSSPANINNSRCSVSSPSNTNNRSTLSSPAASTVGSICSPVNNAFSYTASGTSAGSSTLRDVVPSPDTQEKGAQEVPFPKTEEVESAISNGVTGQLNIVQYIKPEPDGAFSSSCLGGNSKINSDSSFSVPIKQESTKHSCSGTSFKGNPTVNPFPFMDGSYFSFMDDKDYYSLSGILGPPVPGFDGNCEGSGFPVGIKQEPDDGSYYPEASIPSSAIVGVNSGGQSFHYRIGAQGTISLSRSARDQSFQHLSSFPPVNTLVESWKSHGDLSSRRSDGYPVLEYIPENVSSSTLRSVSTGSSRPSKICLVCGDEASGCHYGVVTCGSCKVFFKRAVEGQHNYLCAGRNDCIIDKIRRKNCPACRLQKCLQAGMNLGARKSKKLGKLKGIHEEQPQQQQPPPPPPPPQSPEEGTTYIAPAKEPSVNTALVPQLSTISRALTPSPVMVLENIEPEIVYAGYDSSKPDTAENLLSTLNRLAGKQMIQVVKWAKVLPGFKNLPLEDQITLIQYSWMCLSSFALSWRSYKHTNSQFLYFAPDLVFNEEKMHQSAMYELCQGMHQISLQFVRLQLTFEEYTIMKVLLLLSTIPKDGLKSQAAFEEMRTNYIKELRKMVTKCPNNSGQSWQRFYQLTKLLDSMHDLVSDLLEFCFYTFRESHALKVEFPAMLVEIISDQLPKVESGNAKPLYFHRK

[2] = Clearance in rat; format: ADME; details: in vivo
[3] = Half life in rat; format: ADME; details: in vivo
[4] = Half life in human liver microsomes; format: ADME, microsome
[5] = Half life in human hepatocytes; format: ADME, cell-based, Hepatocyte
[6] = target: T2, Mineralocorticoid receptor (Homo sapiens, UniProt P08235); assay: Displacement of [3H]-Aldosterone from MR overexpressed in human 293 cells measured after overnight incubation by TopCount method; format: cell-based
T2 sequence (P08235 whole entry): T1 sequence (whole entry)

Glucocorticoid receptor [7] = target: T3, Glucocorticoid receptor (Homo sapiens, UniProt P04150); assay: Displacement of [3H]-dexamethasone from GR overexpressed in human 293 cells measured after overnight incubation by TopCount method; format: cell-based
T3 sequence (P04150 whole entry): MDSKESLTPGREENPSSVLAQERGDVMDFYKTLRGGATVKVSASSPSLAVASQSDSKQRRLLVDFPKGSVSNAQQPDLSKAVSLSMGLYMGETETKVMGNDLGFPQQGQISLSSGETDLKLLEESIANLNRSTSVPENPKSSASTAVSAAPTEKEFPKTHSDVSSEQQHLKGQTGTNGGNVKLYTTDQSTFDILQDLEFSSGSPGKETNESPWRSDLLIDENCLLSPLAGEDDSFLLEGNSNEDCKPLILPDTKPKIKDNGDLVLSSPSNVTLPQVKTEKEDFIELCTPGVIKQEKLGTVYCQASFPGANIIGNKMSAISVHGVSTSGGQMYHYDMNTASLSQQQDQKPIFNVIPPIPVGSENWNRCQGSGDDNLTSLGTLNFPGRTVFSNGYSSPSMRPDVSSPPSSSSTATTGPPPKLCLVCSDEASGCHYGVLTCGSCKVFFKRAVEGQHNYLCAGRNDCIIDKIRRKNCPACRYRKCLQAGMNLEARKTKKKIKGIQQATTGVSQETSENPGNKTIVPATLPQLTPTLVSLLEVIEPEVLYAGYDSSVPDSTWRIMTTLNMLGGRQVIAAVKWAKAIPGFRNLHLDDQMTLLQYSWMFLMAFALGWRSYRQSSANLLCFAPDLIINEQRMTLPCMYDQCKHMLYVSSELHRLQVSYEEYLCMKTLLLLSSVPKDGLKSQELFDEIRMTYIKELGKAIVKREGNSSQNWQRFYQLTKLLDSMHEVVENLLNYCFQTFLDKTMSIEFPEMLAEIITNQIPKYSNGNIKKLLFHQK

[8] = target: T2, Mineralocorticoid receptor; assay: Binding affinity to MR (unknown origin)
[9] = target: T4, Mineralocorticoid receptor (Rattus norvegicus, UniProt P22199); assay: Displacement of [3H]-Aldosterone from MR in rat renal soluble fraction measured after 18 hrs in presence of glucocorticoid receptor antagonist RU-486 by liquid scintillation counting method
T4 sequence (P22199 whole entry): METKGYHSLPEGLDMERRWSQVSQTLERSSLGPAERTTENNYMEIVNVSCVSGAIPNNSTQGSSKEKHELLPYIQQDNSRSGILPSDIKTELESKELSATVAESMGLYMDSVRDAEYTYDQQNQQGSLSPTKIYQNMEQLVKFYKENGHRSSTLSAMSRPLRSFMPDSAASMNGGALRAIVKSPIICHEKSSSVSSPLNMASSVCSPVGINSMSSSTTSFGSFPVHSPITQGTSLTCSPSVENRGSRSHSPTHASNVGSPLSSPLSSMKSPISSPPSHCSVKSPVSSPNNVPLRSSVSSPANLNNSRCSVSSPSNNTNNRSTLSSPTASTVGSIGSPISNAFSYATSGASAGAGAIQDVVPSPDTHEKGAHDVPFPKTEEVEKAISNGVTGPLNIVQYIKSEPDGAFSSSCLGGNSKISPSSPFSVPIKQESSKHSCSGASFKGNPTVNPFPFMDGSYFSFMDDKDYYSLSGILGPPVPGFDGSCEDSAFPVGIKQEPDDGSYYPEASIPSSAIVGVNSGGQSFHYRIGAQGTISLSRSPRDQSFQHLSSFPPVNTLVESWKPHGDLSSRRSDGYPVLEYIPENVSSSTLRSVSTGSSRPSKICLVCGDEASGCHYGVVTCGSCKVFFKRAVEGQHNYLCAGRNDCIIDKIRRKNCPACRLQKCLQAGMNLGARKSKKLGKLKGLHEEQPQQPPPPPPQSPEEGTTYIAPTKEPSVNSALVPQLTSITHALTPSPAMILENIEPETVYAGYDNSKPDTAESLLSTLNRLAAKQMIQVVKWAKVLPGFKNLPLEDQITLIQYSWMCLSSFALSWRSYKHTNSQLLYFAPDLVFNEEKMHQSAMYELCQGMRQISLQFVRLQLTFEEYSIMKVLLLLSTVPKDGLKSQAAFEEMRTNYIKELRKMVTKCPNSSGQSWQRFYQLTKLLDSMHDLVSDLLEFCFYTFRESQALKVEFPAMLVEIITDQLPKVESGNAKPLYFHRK

Androgen receptor = target: T5, Androgen receptor (Homo sapiens, UniProt P10275); assay: Antagonist activity at GAL4-fused human AR LBD (667 to 919 residues) expressed in CHO-K1 cells assessed as inhibition of dihydrotestosterone-induced transactivation activity after 5 to 6 hrs by luciferase reporter gene assay; format: cell-based
T5 sequence (P10275 whole entry): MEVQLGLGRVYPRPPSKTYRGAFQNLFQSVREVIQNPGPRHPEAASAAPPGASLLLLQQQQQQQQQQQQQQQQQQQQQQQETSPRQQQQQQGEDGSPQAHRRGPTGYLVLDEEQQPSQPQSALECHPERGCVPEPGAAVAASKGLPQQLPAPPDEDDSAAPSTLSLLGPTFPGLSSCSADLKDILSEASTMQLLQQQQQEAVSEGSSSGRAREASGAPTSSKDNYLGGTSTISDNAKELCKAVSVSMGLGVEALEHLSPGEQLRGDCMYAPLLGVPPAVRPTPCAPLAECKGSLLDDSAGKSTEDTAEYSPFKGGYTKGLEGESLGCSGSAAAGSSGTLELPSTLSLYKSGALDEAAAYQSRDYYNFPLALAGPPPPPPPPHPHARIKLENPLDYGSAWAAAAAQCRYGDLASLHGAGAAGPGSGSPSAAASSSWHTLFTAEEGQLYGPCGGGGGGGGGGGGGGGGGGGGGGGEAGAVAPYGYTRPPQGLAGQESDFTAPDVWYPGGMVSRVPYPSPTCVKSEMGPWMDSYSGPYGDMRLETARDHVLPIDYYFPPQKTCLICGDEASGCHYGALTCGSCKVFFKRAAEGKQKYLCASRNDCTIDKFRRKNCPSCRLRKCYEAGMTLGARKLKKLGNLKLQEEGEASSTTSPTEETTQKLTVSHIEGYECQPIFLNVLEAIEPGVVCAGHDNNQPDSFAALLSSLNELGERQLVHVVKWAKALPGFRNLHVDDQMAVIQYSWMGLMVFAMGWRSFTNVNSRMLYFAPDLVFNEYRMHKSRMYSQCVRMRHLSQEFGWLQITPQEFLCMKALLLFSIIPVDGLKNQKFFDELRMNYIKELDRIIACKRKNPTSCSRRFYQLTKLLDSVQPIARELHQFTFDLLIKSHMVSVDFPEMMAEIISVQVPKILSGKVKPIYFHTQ

Progesterone receptor = target: T6, Progesterone receptor (Homo sapiens, UniProt P06401); assay: Antagonist activity at GAL4-fused human PR LBD (680 to 933 residues) expressed in CHO-K1 cells assessed as inhibition of progesterone-induced transactivation activity after 5 to 6 hrs by luciferase reporter gene assay; format: cell-based
T6 sequence (P06401 whole entry): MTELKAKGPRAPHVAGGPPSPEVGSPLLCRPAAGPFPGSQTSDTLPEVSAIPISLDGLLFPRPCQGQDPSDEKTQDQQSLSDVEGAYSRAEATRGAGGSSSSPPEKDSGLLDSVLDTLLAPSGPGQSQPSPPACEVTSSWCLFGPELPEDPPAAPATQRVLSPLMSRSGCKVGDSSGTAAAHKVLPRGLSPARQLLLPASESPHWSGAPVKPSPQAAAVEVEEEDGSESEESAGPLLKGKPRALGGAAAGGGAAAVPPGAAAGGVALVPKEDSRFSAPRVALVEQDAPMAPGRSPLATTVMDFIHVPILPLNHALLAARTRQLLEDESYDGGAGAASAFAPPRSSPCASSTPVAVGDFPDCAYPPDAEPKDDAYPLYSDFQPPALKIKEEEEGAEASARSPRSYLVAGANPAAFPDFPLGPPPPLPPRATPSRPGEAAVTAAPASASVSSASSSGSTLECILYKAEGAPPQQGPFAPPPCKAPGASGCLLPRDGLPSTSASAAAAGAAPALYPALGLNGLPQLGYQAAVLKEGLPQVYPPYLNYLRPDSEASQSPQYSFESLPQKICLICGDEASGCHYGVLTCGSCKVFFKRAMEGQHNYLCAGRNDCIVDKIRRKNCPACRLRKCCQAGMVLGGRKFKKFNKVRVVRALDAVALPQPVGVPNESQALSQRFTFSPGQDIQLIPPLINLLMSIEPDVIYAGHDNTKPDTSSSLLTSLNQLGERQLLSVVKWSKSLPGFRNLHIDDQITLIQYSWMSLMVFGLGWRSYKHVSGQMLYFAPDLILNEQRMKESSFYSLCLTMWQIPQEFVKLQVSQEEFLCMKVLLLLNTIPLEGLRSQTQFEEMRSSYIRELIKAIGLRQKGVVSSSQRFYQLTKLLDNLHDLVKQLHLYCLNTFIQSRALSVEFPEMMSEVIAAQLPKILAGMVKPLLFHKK

[10] = target: T2, Mineralocorticoid receptor; assay: Antagonist activity at Gal4-fused human MR LBD (734 to 985 residues) expressed in CHO-K1 cells after 5 to 6 hrs by luciferase reporter gene assay; format: cell-based
Glucocorticoid receptor [11] = target: T3, Glucocorticoid receptor; assay: Antagonist activity at GAL4-fused human GR LBD (443 to 777 residues) expressed in CHO-K1 cells assessed as inhibition of dexamethasone-induced transactivation activity after 5 to 6 hrs by luciferase reporter gene assay; format: cell-based

CCC(c1ccc(C(F)(F)F)cc1)(C(O)C(F)F)n1ncc2c(NS(C)(=O)=O)cccc21 (stereo not given)
Inhibitory potency [1]: 11 nM
clearance [2]: 3.8 mL/min/kg
half-life [3]: 9.9 h
half-life [4]: 1.03 h
half-life [5]: > 1.5 h

Cc1ccc(C(C)(c2c[nH]c3c(NS(C)(=O)=O)cccc23)C2CC2)cc1 (stereo not given)
Ki [6]: ≤ 500 nM
Ki (Glucocorticoid receptor [7]): ≤ 500 nM

C[C@]12C[C@H](O)[C@H]3[C@@H](CCC4=CC(=O)CC[C@@]43C)[C@@H]1CC[C@@H]2C(=O)CO [CORTICOSTERONE]
Kd [8]: 0.5 to 2 nM

CCC(c1ccc(Br)cc1)(C(C)O)n1ncc2c(NS(C)(=O)=O)cccc21 (stereo not given)
Inhibitory potency [1]: 7 nM
half-life [4]: 0.8 h
half-life [5]: 1.15 h

COc1cc(NC(=O)c2ccc(-c3ccccc3OC(F)(F)F)c(CCN3CC(C)OC(C)C3)c2)ccc1S(N)(=O)=O (stereo not given)
IC50 [9]: 61 nM

COc1cc(NC(=O)c2ccc(-c3ccccc3C(F)(F)F)c(COC(C)=O)c2)ccc1S(N)(=O)=O
IC50 [9]: 31 nM

COc1cc(NC(=O)c2ccc(-c3ccccc3OC(F)(F)F)c(CCN(C)C3CC3)c2)ccc1S(N)(=O)=O
IC50 [9]: 22 nM

C[C@]12CCC(=O)C=C1CC[C@@H]1[C@@H]2[C@@H](O)C[C@@]2(C)[C@H]1CC[C@]2(O)C(=O)CO [HYDROCORTISONE]
Kd [8]: 0.5 to 2 nM

CCOc1nccc2c1[C@H](c1ccc(C#N)cc1OC)C(C#N)=C(C)N2
IC50 (Androgen receptor): 2800 nM
IC50 (Progesterone receptor): 5400 nM
IC50 [10]: 47 nM
IC50 (Glucocorticoid receptor [11]): 6900 nM

CC(c1ccccc1)(c1c[nH]c2c(NS(C)(=O)=O)cccc12)C1CC1 (stereo not given)
Ki [6]: ≤ 500 nM
Ki (Glucocorticoid receptor [7]): ≤ 500 nM

CCOc1ncc(C)c2c1[C@H](c1ccc(C#N)cc1OC)C(C#N)=C(C)N2
IC50 (Androgen receptor): 2400 nM
IC50 (Progesterone receptor): 4200 nM
IC50 [10]: 26 nM
IC50 (Glucocorticoid receptor [11]): 5800 nM
